The values that follow come from patent US12336981B2, “Compounds and compositions for the inhibition of NAMPT” (Valo Health, Inc., priority 2010, dated 2025).

One test concerns the target T1, NAMPT (Homo sapiens, UniProt P43490).
T1 construct: His tag; host or cells: E. coli
Nature of the test: Biochemical inhibition assay: NAMPT enzymatic reaction, NMN quantified by mass spectrometry. As to conditions: NAMPT enzymatic assay; read-out: Biochem IC50. The method in brief: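 Inhibition of E. coli-expressed His-tagged human NAMPT, measured as NMN formation by mass spectrometry after a 30 min room-temperature reaction containing 1 μM NAM, 100 μM PRPP and 2.5 mM ATP.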

A further test has as its system A2780 cells. Nature of the test: In-vitro cell proliferation assay (SRB), A2780 cells. It is filed as cell-based. As to conditions: Homo sapiens, A2780, 72 h, A2780 cells, 72 hours, SRB; read-out: A2780 IC50. A digest of the protocol: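 SRB read-out: 6% TCA fix 1 h at 4° C., stain, Tris solubilize, A570. Media-only background subtracted; % inhibition from two compound concentrations.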

T1 sequence (P43490 whole entry): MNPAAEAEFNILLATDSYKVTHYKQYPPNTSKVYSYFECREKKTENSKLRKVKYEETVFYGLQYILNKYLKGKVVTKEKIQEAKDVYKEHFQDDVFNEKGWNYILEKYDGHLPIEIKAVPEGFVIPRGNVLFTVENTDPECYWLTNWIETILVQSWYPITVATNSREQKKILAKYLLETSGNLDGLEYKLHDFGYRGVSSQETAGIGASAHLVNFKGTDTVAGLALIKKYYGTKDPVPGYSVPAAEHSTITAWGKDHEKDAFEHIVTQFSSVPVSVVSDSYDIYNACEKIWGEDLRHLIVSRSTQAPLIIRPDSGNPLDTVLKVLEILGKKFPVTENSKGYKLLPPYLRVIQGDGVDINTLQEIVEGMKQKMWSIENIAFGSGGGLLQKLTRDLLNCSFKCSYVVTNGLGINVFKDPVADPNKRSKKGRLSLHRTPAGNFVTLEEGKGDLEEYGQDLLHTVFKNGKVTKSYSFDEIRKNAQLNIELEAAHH

In the case of `O=C(NCc1ccc(S(=O)(=O)c2ccc(-n3cccn3)c(F)c2)cc1)c1cc2ccncc2o1`, the half-maximal inhibitory concentration (IC50) is 17.3 nM on NAMPT and 5 nM with A2780 cells.
Regarding `O=C(NCc1ccc(S(=O)(=O)c2ccc(-n3cccn3)c(F)c2)cc1)c1cnc2[nH]ncc2c1`, the IC50 at NAMPT was found to be 13.1 nM; with A2780 cells, 3.3 nM.
`O=C(NCc1ccc(S(=O)(=O)c2ccc(OCC(F)(F)F)c(F)c2)cc1)c1cc2ccncc2s1`: the values for the IC50 on NAMPT and in the test on A2780 cells were 4.6 nM and 23.5 nM, respectively.
The corresponding values for `O=C(NCc1ccc(S(=O)(=O)c2ccc(OCC(F)(F)F)c(F)c2)cc1)c1ccc2nccn2c1` are 15 nM and 8 nM.
For `O=C(NCc1ccc(S(=O)(=O)c2ccc(OCC(F)(F)F)c(F)c2)cc1)c1cnc2nccn2c1`, in that order: 4.4 nM and 7.3 nM.
The corresponding values for `O=C(NCc1ccc(S(=O)(=O)c2ccc(OCC(F)(F)F)c(F)c2)cc1)c1cc2ccncc2o1` are 6.9 nM and 23.8 nM.
For `CSc1ccc(S(=O)(=O)c2ccc(CNC(=O)c3cc4ccncc4s3)cc2)cc1F`, the 50% inhibitory concentration (IC50) on NAMPT came out at 2.2 nM; with A2780 cells, 2 nM.
The corresponding values for `CSc1ccc(S(=O)(=O)c2ccc(CNC(=O)c3ccc4nccn4c3)cc2)cc1F` are 5.6 nM and 2.7 nM.
Regarding `CSc1ccc(S(=O)(=O)c2ccc(CNC(=O)c3cc4ccncc4o3)cc2)cc1F`, the values for the 50% inhibitory concentration (IC50) at NAMPT and in the test on A2780 cells were 12.3 nM and 11.2 nM, respectively.
As for `O=C(NCc1ccc(S(=O)(=O)c2ccc(OC(F)(F)F)c(F)c2)cc1)c1cnc2nccn2c1`, the IC50 on NAMPT is 4 nM; in the test on A2780 cells, 11.8 nM.
For the molecule `O=C(NCc1ccc(S(=O)(=O)c2ccc(OC(F)(F)F)c(F)c2)cc1)c1ccc2nccn2c1`, the IC50 came out at 8.4 nM at NAMPT and 6.3 nM in the test with A2780 cells.
For `O=C(NCc1ccc(S(=O)(=O)c2ccc(OC(F)(F)F)c(F)c2)cc1)c1cc2ccncc2o1`, in that order: 10 nM and 15.6 nM.
For `O=C(NCc1ccc(S(=O)(=O)c2ccc(OC(F)(F)F)c(F)c2)cc1)c1cc2ccncc2s1`, in that order: 11.5 nM and 11.5 nM.
For the molecule `O=C(NCc1ccc(S(=O)(=O)c2ccc(C(F)(F)F)c(F)c2)cc1)c1cc2ccncc2o1`, the IC50 amounted to 9.2 nM on NAMPT and 13.7 nM in the test on A2780 cells.
Consider `O=C(NCc1ccc(S(=O)(=O)c2ccc(C(F)(F)F)c(F)c2)cc1)c1cnc2nccn2c1`, for which the half-inhibitory concentration (IC50) on NAMPT came to 4.1 nM; in the test with A2780 cells it was 6.9 nM.
For `O=C(NCc1ccc(S(=O)(=O)c2ccc(C(F)(F)F)c(F)c2)cc1)c1ccc2nccn2c1`, in that order: 40.2 nM and 4.4 nM.
Turning to `O=C(NCc1ccc(S(=O)(=O)c2ccc(C(F)(F)F)c(F)c2)cc1)c1cc2ccncc2s1`, the results for the 50% inhibitory concentration (IC50) on NAMPT and in the test with A2780 cells were 8.8 nM and 7.2 nM, respectively.
The corresponding values for `CC(C)COc1cc(F)cc(S(=O)(=O)c2ccc(CNC(=O)c3cnc4nccn4c3)cc2)c1` are 3.1 nM and 3.4 nM.
For `CC(C)COc1cc(F)cc(S(=O)(=O)c2ccc(CNC(=O)c3ccc4nccn4c3)cc2)c1`, in that order: 11.3 nM and 3 nM.
For `CC(C)COc1cc(F)cc(S(=O)(=O)c2ccc(CNC(=O)c3cc4ccncc4s3)cc2)c1`, the concentration for half-maximal inhibition (IC50) on NAMPT worked out at 4.8 nM; in the test on A2780 cells, 7.5 nM.
`CC(C)COc1cc(F)cc(S(=O)(=O)c2ccc(CNC(=O)c3cc4cnccc4[nH]3)cc2)c1`: the concentration for half-maximal inhibition (IC50) on NAMPT is 13.2 nM; with A2780 cells it was 7 nM.
The corresponding values for `O=C(NCc1ccc(S(=O)(=O)c2cc(F)cc(OCC(F)(F)F)c2)cc1)c1cc2cnccc2[nH]1` are 5.6 nM and 1.9 nM.
The corresponding values for `O=C(NCc1ccc(S(=O)(=O)c2cc(F)cc(OCC(F)(F)F)c2)cc1)c1cnc2nccn2c1` are 1.9 nM and 1.5 nM.
In the case of `O=C(NCc1ccc(S(=O)(=O)c2cc(F)cc(N3CCOCC3)c2)cc1)c1cc2cnccc2[nH]1`, the values for the IC50 on NAMPT and in the test with A2780 cells were 4 nM and 0.8 nM, respectively.
For `O=C(NCc1ccc(S(=O)(=O)c2cc(F)cc(N3CCOCC3)c2)cc1)c1ccc2nccn2c1`, in that order: 3 nM and 0.6 nM.
The corresponding values for `O=C(NCc1ccc(S(=O)(=O)c2cc(F)cc(N3CCCC3)c2)cc1)c1cnc2nccn2c1` are 3.1 nM and 2 nM.
For `O=C(NCc1ccc(S(=O)(=O)c2cc(F)cc(N3CCCC3)c2)cc1)c1cc2ccncc2s1`, the IC50 on NAMPT amounted to 1.2 nM; with A2780 cells, 2.7 nM.
The corresponding values for `O=C(NCc1ccc(S(=O)(=O)c2cc(F)cc(N3CCCC3)c2)cc1)c1ccc2nccn2c1` are 3.9 nM and 2.2 nM.
The corresponding values for `O=C(NCc1ccc(S(=O)(=O)c2cc(F)cc(C(F)(F)F)c2)cc1)c1cc2ccncc2o1` are 7.4 nM and 5 nM.
For `O=C(NCc1ccc(S(=O)(=O)c2cc(F)cc(C(F)(F)F)c2)cc1)c1cc2cnccc2[nH]1`, in that order: 26.2 nM and 3.6 nM.
With `O=C(NCc1ccc(S(=O)(=O)c2cc(F)cc(C(F)(F)F)c2)cc1)c1cnc2nccn2c1`, the values for the concentration for half-maximal inhibition (IC50) on NAMPT and in the test with A2780 cells were 5.9 nM and 1.1 nM, respectively.
For `N#CC1(c2ccc(S(=O)(=O)c3ccc(CNC(=O)c4ccc5nccn5c4)cc3)cc2)CCCC1`, in that order: 10.7 nM and 3 nM.
As to `N#CC1(c2ccc(S(=O)(=O)c3ccc(CNC(=O)c4cc5cnccc5[nH]4)cc3)cc2)CCCC1`, the IC50 at NAMPT came out at 60.1 nM; in the test with A2780 cells, 18.9 nM.
The corresponding values for `N#CC1(c2ccc(S(=O)(=O)c3ccc(CNC(=O)c4cc5ccncc5o4)cc3)cc2)CCCC1` are 8 nM and 6 nM.
`O=C(NCc1ccc(S(=O)(=O)c2ccc(-n3ccnc3)cc2)cc1)c1cnc2nccn2c1`: the IC50 at NAMPT is less than 0.65 nM; in the test on A2780 cells it was 12.2 nM.
On to `O=C(NCc1ccc(S(=O)(=O)c2ccc(Cn3ccnc3)cc2)cc1)c1cc2ccncc2s1`, for which the IC50 on NAMPT came out at 5.3 nM; in the test with A2780 cells, 12.2 nM.
Turning to `O=C(NCc1ccc(S(=O)(=O)c2ccc(-n3cccn3)cc2)cc1)c1cc2ccncc2o1`, the IC50 was determined as 4.1 nM at NAMPT and 7.3 nM in the test on A2780 cells.
Consider `O=C(NCc1ccc(S(=O)(=O)c2ccc(-n3cccn3)cc2)cc1)c1cnc2[nH]ncc2c1`, for which the IC50 on NAMPT amounted to 12.3 nM; in the test with A2780 cells, 7.5 nM.
For `CC(C)COc1ccc(S(=O)(=O)c2ccc(CNC(=O)c3cc4ccncc4o3)cc2)cc1`, in that order: 9.4 nM and 11.6 nM.
For `CC(C)COc1ccc(S(=O)(=O)c2ccc(CNC(=O)c3cnc4nccn4c3)cc2)cc1`, in that order: 5.5 nM and 5.2 nM.
For `CC(C)COc1ccc(S(=O)(=O)c2ccc(CNC(=O)c3cc4cnccc4[nH]3)cc2)cc1`, in that order: 12.7 nM and 9.4 nM.
Take `CC(C)COc1ccc(S(=O)(=O)c2ccc(CNC(=O)c3ccc4nccn4c3)cc2)cc1`: the IC50 was 2.2 nM on NAMPT and 2.7 nM in the test on A2780 cells.
With `CC(C)COc1ccc(S(=O)(=O)c2ccc(CNC(=O)c3cc4ccncc4s3)cc2)cc1`, the IC50 at NAMPT was determined as 4 nM; with A2780 cells it was 10.3 nM.
The corresponding values for `CN1CCN(c2ccc(S(=O)(=O)c3ccc(CNC(=O)c4cc5ccncc5o4)cc3)cc2)CC1` are 1 nM and 0.5 nM.
Regarding `CN1CCN(c2ccc(S(=O)(=O)c3ccc(CNC(=O)c4cc5cnccc5[nH]4)cc3)cc2)CC1`, the 50% inhibitory concentration (IC50) on NAMPT came to 3 nM; in the test on A2780 cells it was 0.8 nM.
The corresponding values for `CN1CCN(c2ccc(S(=O)(=O)c3ccc(CNC(=O)c4cnc5[nH]ncc5c4)cc3)cc2)CC1` are 4 nM and 1.3 nM.
The corresponding values for `CN1CCN(c2ccc(S(=O)(=O)c3ccc(CNC(=O)c4cc5ccncc5s4)cc3)cc2)CC1` are 1 nM and 0.3 nM.
As for `CN1CCN(c2ccc(S(=O)(=O)c3ccc(CNC(=O)c4ccc5nccn5c4)cc3)cc2)CC1`, the figures for the IC50 at NAMPT and in the test on A2780 cells were 1 nM and 0.2 nM, respectively.
For `CCOCc1ccc(S(=O)(=O)c2ccc(CNC(=O)c3cc4ccncc4o3)cc2)cc1`, in that order: 4.9 nM and 6.6 nM.
For `CCOCc1ccc(S(=O)(=O)c2ccc(CNC(=O)c3cnc4nccn4c3)cc2)cc1`, in that order: 2.7 nM and 5.2 nM.
With `CCOCc1ccc(S(=O)(=O)c2ccc(CNC(=O)c3cc4cnccc4[nH]3)cc2)cc1`, the IC50 was 22.5 nM on NAMPT and 6.8 nM with A2780 cells.
The corresponding values for `CCNC(=O)c1ccc(S(=O)(=O)c2ccc(CNC(=O)c3cc4ccncc4o3)cc2)cc1` are 4.5 nM and 6.7 nM.
On to `CCNC(=O)c1ccc(S(=O)(=O)c2ccc(CNC(=O)c3cc4cnccc4[nH]3)cc2)cc1`, for which the concentration for half-maximal inhibition (IC50) on NAMPT was 14.5 nM; with A2780 cells it was 14.1 nM.
As for `CCNC(=O)c1ccc(S(=O)(=O)c2ccc(CNC(=O)c3ccc4nccn4c3)cc2)cc1`, the IC50 at NAMPT stood at 12 nM; in the test on A2780 cells, 6.3 nM.
`CCNC(=O)c1ccc(S(=O)(=O)c2ccc(CNC(=O)c3cnc4nccn4c3)cc2)cc1`: the concentration for half-maximal inhibition (IC50) at NAMPT is 22.6 nM; with A2780 cells, 87.8 nM.
Take `CCNC(=O)c1ccc(S(=O)(=O)c2ccc(CNC(=O)c3cc4ccncc4s3)cc2)cc1`: the IC50 at NAMPT was 1.5 nM; with A2780 cells, 3.3 nM.
The corresponding values for `O=C(NCc1ccc(S(=O)(=O)c2ccc(CO)cc2)cc1)c1ccc2nccn2c1` are 14.2 nM and 12.9 nM.
For `O=C(NCc1ccc(S(=O)(=O)c2ccc(CO)cc2)cc1)c1cc2ccncc2o1`, in that order: 4.9 nM and 6.2 nM.
For the molecule `O=C(NCc1ccc(S(=O)(=O)c2ccc(N3CCOCC3)cc2)cc1)c1cc2ccncc2o1`, the half-maximal inhibitory concentration (IC50) on NAMPT worked out at 4.6 nM; in the test with A2780 cells, 2.5 nM.
For `O=C(NCc1ccc(S(=O)(=O)c2ccc(N3CCOCC3)cc2)cc1)c1ccc2nccn2c1`, in that order: 3.5 nM and 0.9 nM.
